{"source": "PubChem BioAssay AID1963847", "about": "(Molecular Pharmacology Branch, DTP, NCI, 2024);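 also: spheroids exposed to compounds for one week before readout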;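 as to viability, T/C: luminescence used as stand-in measure of viable cells; 100% = DMSO vehicle control viability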", "test_system": "415267-285-R-J2-PDC complex spheroid viability", "experiment": "Anticancer human tumor 415267-285-R-J2-PDC patient-derived breast carcinoma cell line growth inhibition [POLQ]", "settings": "for IC50: curve of first compound; for viability, T/C: stronger effect = lower value", "method_in_brief": "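Growth inhibition in 3D: complex spheroids (tumor PDC, HUVEC, MSC) treated with POLQ inhibitor combinations; where Cmax unknown, highest tested concentration 10 microM, except SN-38 at 1 microM.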"}
{"smiles": "CCc1cc2c(N3CCc4c(cc(Cn5ccnc5)cc4-c4cn(C)nc4C(F)(F)F)C3=O)ccnc2c(OC)n1", "note": "+ Cc1cccc(N(C)C(=O)C2C(O)CCN2c2nc(C)cc(C(F)(F)F)c2C#N)c1", "values": [{"measurement": "IC50", "setting": "second compound 0.0316 µM", "result": "> 10", "unit": "µM"}, {"measurement": "IC50", "setting": "second compound 0.1 µM", "result": "> 10", "unit": "µM"}, {"measurement": "IC50", "setting": "second compound 0.316 µM", "result": "> 10", "unit": "µM"}, {"measurement": "IC50", "setting": "second compound 1 µM", "result": "> 10", "unit": "µM"}, {"measurement": "IC50", "setting": "second compound 3.16 µM", "result": "> 10", "unit": "µM"}, {"measurement": "IC50", "setting": "second compound 10 µM", "result": "> 10", "unit": "µM"}, {"measurement": "viability, T/C", "setting": "second compound 0.0316 µM, first compound 0.0316 µM", "result": 88.4, "unit": "%"}, {"measurement": "viability, T/C", "setting": "second compound 0.0316 µM, first compound 0.1 µM", "result": 94.8, "unit": "%"}, {"measurement": "viability, T/C", "setting": "second compound 0.0316 µM, first compound 0.316 µM", "result": 88.7, "unit": "%"}, {"measurement": "viability, T/C", "setting": "second compound 0.0316 µM, first compound 1 µM", "result": 86.2, "unit": "%"}, {"measurement": "viability, T/C", "setting": "second compound 0.0316 µM, first compound 3.16 µM", "result": 92.8, "unit": "%"}, {"measurement": "viability, T/C", "setting": "second compound 0.0316 µM, first compound 10 µM", "result": 79.2, "unit": "%"}, {"measurement": "viability, T/C", "setting": "second compound 0.1 µM, first compound 0.0316 µM", "result": 102, "unit": "%"}, {"measurement": "viability, T/C", "setting": "second compound 0.1 µM, first compound 0.1 µM", "result": 99.8, "unit": "%"}, {"measurement": "viability, T/C", "setting": "second compound 0.1 µM, first compound 0.316 µM", "result": 80.2, "unit": "%"}, {"measurement": "viability, T/C", "setting": "second compound 0.1 µM, first compound 1 µM", "result": 89, "unit": "%"}, {"measurement": "viability, T/C", "setting": "second compound 0.1 µM, first compound 3.16 µM", "result": 95.4, "unit": "%"}, {"measurement": "viability, T/C", "setting": "second compound 0.1 µM, first compound 10 µM", "result": 77.2, "unit": "%"}, {"measurement": "viability, T/C", "setting": "second compound 0.316 µM, first compound 0.0316 µM", "result": 105, "unit": "%"}, {"measurement": "viability, T/C", "setting": "second compound 0.316 µM, first compound 0.1 µM", "result": 96.1, "unit": "%"}, {"measurement": "viability, T/C", "setting": "second compound 0.316 µM, first compound 0.316 µM", "result": 88.5, "unit": "%"}, {"measurement": "viability, T/C", "setting": "second compound 0.316 µM, first compound 1 µM", "result": 88.7, "unit": "%"}, {"measurement": "viability, T/C", "setting": "second compound 0.316 µM, first compound 3.16 µM", "result": 89.8, "unit": "%"}, {"measurement": "viability, T/C", "setting": "second compound 0.316 µM, first compound 10 µM", "result": 88.7, "unit": "%"}, {"measurement": "viability, T/C", "setting": "second compound 1 µM, first compound 0.0316 µM", "result": 92.3, "unit": "%"}, {"measurement": "viability, T/C", "setting": "second compound 1 µM, first compound 0.1 µM", "result": 91.5, "unit": "%"}, {"measurement": "viability, T/C", "setting": "second compound 1 µM, first compound 0.316 µM", "result": 88.1, "unit": "%"}, {"measurement": "viability, T/C", "setting": "second compound 1 µM, first compound 1 µM", "result": 88.2, "unit": "%"}, {"measurement": "viability, T/C", "setting": "second compound 1 µM, first compound 3.16 µM", "result": 91.2, "unit": "%"}, {"measurement": "viability, T/C", "setting": "second compound 1 µM, first compound 10 µM", "result": 86.2, "unit": "%"}, {"measurement": "viability, T/C", "setting": "second compound 3.16 µM, first compound 0.0316 µM", "result": 102, "unit": "%"}, {"measurement": "viability, T/C", "setting": "second compound 3.16 µM, first compound 0.1 µM", "result": 98.3, "unit": "%"}, {"measurement": "viability, T/C", "setting": "second compound 3.16 µM, first compound 0.316 µM", "result": 82.3, "unit": "%"}, {"measurement": "viability, T/C", "setting": "second compound 3.16 µM, first compound 1 µM", "result": 101, "unit": "%"}, {"measurement": "viability, T/C", "setting": "second compound 3.16 µM, first compound 3.16 µM", "result": 92.2, "unit": "%"}, {"measurement": "viability, T/C", "setting": "second compound 3.16 µM, first compound 10 µM", "result": 85.4, "unit": "%"}, {"measurement": "viability, T/C", "setting": "second compound 10 µM, first compound 0.0316 µM", "result": 100, "unit": "%"}, {"measurement": "viability, T/C", "setting": "second compound 10 µM, first compound 0.1 µM", "result": 100, "unit": "%"}, {"measurement": "viability, T/C", "setting": "second compound 10 µM, first compound 0.316 µM", "result": 99.6, "unit": "%"}, {"measurement": "viability, T/C", "setting": "second compound 10 µM, first compound 1 µM", "result": 99.8, "unit": "%"}, {"measurement": "viability, T/C", "setting": "second compound 10 µM, first compound 3.16 µM", "result": 82.5, "unit": "%"}, {"measurement": "viability, T/C", "setting": "second compound 10 µM, first compound 10 µM", "result": 77.8, "unit": "%"}]}
